Data from US20250241895A1 (GH RESEARCH IRELAND LIMITED, priority 2022, published 2025).

Assay: Pharmacokinetics of 5-MeO-DMT and bufotenine after inhalation
Format: in vivo, human
Conditions: LLOQ 25 pg/ml
Procedure: Blood samples were obtained at 1; 2; 4; 7; 10; 15; 20; 30; 45 min and 1; 1.5; 2; 3; 4 hours after administration.
PK parameters were generated by algebraic analysis of the concentration versus time plots for each individual. The analysis was carried out using the software Phoenix WinNonlin 6.3.

In the case of `CN(C)CCc1c[nH]c2ccc(O)cc12` [bufotenine], the “samples with bufotenine concentration above LLOQ” value is reported as “Only in few samples” and the bufotenine blood concentration (from 15 min onwards after 5-MeO-DMT inhalation) is reported as less than 25 pg/mL.
